The values that follow come from ChEMBL document CHEMBL1150754, “Chemical and pharmaceutical studies on medicinal plants in Paraguay. Geraniin, an angiotensin-converting enzyme inhibitor from "paraparai mi," Phyllanthus niruri” (J Nat Prod, 1988).

For the assay, the target named is Angiotensin-converting enzyme (Homo sapiens, UniProt P12821). Briefly: Inhibition of ACE by fluorometric assay.
Sequence of Angiotensin-converting enzyme (P12821 whole entry): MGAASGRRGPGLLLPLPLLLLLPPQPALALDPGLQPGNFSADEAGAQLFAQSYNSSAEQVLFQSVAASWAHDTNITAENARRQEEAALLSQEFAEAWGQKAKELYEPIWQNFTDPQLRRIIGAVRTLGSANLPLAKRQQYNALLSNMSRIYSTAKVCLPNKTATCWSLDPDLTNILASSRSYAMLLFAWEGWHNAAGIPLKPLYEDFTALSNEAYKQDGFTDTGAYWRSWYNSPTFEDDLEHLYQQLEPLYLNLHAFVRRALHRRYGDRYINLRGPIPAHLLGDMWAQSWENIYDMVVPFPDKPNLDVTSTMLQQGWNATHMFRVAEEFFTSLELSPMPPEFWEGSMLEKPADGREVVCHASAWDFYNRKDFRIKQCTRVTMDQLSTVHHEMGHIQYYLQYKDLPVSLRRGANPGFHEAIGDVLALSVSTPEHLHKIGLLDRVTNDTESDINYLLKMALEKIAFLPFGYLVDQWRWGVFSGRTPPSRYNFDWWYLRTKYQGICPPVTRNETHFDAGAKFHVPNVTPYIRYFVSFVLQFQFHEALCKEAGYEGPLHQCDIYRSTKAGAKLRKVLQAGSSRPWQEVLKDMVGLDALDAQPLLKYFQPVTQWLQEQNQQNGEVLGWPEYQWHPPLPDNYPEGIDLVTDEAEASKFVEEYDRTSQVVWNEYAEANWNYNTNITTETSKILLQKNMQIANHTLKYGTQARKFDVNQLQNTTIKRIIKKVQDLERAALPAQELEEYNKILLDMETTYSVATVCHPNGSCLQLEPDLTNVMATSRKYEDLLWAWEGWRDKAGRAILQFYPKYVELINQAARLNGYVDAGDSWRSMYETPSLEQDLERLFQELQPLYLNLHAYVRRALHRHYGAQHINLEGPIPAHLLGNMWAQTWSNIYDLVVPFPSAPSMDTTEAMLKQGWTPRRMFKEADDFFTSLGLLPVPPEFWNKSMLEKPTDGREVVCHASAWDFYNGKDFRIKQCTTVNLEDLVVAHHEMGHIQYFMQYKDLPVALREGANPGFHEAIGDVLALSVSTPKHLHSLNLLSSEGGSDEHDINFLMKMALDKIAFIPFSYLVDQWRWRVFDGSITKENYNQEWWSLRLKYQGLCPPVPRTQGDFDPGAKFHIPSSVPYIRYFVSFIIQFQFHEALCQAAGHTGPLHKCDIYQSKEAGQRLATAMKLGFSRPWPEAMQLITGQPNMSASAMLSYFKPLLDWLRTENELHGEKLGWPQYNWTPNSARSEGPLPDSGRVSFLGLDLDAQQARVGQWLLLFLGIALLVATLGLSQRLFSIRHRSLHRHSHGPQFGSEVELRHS
In the case of `O=C(O[C@@H]1O[C@@H]2COC(=O)c3cc(O)c(O)c(O)c3-c3c(cc(O)c(O)c3O)C(=O)O[C@H]([C@H]1O)[C@@H]2O)c1cc(O)c(O)c(O)c1` [CORILAGIN], the IC50 (commonly the concentration that inhibits the measured activity by half) amounted to 3.7 mM.

Consider `O=c1oc2c(O)c(O)cc3c(=O)oc4c(O)c(O)cc1c4c23` [ELLAGIC ACID], for which half-maximal inhibition (IC50) was put at 5 mM. The IC50 values of the last two molecules are within 1.5-fold of each other.

On to `O=C(O)c1cc(O)c(O)c(O)c1` [GALLIC ACID], for which inhibition was half-maximal at 7.7 mM (IC50).

Regarding `O=C1O[C@H]2[C@@H]3OC(=O)c4cc(O)c(O)c(O)c4-c4c(cc(O)c(O)c4O)C(=O)OC[C@H]2O[C@@H](OC(=O)c2cc(O)c(O)c(O)c2)[C@@H]3OC(=O)c2cc(O)c(O)c3c2[C@@H]2C1=CC(=O)[C@](O)(O3)C2(O)O` [GERANIIN], the IC50 amounted to 0.4 mM. Compared with the last molecule, the IC50 is about 19-fold lower.
